Structures can show the parent of a compound that is named as a salt.
Biological target: RIPK1 (recombinant GST-RIPK1 kinase domain, residues 1-327) (Homo sapiens (Human), UniProt Q13546)
Experiment: RIPK1-ADP-Glo Enzymatic Assay
Assay type: biochemical
Conditions: ADP-Glo; 25 nM GST-RIPK1, 300 μM ATP; assay lower limit ~25 nM; read-out: RIPK1 V0 Ec50
Summary of the method: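 Inhibition of ADP formation was measured after compound and enzyme (25 nM) were pre-incubated for 30 minutes at ambient temperature and the kinase reaction ran for 150 minutes at 300 μM ATP with dephosphorylated MBP substrate. EC50 values come from ten-point curves fitted non-linearly.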

Sequence of RIPK1 (recombinant GST-RIPK1 kinase domain, residues 1-327) (Q13546 1-327): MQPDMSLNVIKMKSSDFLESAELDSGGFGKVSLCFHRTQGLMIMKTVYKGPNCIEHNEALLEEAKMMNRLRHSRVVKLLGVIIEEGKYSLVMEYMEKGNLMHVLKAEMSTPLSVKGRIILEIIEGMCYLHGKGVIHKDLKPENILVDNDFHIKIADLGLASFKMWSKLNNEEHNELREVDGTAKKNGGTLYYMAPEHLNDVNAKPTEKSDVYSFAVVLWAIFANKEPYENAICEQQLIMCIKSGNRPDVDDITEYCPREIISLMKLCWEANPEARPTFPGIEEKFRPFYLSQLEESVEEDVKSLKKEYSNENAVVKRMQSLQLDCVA

Point of comparison: `O=C1N2[C@@H](CC[C@H]2c2ccccc2)OC12CCN(c1cc(C3CC3)ccn1)CC2` [Example 11.22, (5′S,7a′R)-1-(4-cyclopropylpyridin-2-yl)-5′-phenyltetrahydro-3′H-spiro[piperidine-4,2′-pyrrolo[2,1-b][1,3]oxazol]-3′-one], EC50 761 nM. Against it:
- O=C(NC1(C(F)(F)F)CC1)c1nc(N2CCC3(CC2)O[C@@H]2CC[C@@H](c4cc(F)cc(F)c4)N2C3=O)ncc1F [Example 7.10, 2-[(5′S,7a′R)-5′-(3,5-difluorophenyl)-3′-oxotetrahydro-1H,3′H-spiro[piperidine-4,2′-pyrrolo[2,1-b][1,3]oxazol]-1-yl]-5-fluoro-N-[1-(trifluoromethyl)cyclo-propyl]pyrimidine-4-carboxamide] — 5.2-fold lower, 147 nM
- O=C(c1ccc(Cl)cc1F)N1CCC2(CC1)O[C@@H]1CC[C@@H](c3cc(F)cc(F)c3)N1C2=O [Example 5.59, (5′S,7a′R)-1-(4-chloro-2-fluorobenzoyl)-5′-(3,5-difluorophenyl)tetrahydro-3′H-spiro[piperidine-4,2′-pyrrolo[2,1-b]oxazol]-3′-one] — lower, < 25 nM
- COc1cccc(C(=O)N2CCC3(CC2)O[C@@H]2CC[C@@H](c4cc(F)cc(F)c4)N2C3=O)c1F [Example 6.7, (5′S,7a′R)-5′-(3,5-difluorophenyl)-1-(2-fluoro-3-methoxy-benzene-1-carbonyl) tetrahydro-3′H-spiro [piperidine-4,2′-pyrrolo[2,1-b][1,3]oxazol]-3′-one] — lower, < 25 nM
- O=C1N2[C@H](OC13CCN(c1ccnc4c(F)cnn14)CC3)[C@H](O)C[C@H]2c1ccccc1 [Example 4.149, (5′S,7′R,7a′R)-1-(3-fluoropyrazolo[1,5-a]pyrimidin-7-yl)-7′-hydroxy-5′-phenyltetrahydro-3′H-spiro[piperidine-4,2′-pyrrolo[2,1-b] [1,3]oxazol]-3′-one] — lower, < 25 nM
- COC1(C)CN(C(=O)c2nc(N3CCC4(CC3)O[C@@H]3CC[C@@H](c5cc(F)cc(F)c5)N3C4=O)ncc2F)C1 [Example 7.6, (5′S,7a′R)-5′-(3,5-difluorophenyl)-1-[5-fluoro-4-(3-methoxy-3-methylazetidine-1-carbonyl)pyrimidin-2-yl]tetrahydro-3′H-spiro[piperidine-4,2′-pyrrolo[2,1-b][1,3]oxazol]-3′-one] — 2.8-fold lower, 271 nM
- COC(=O)c1cnc(N2CCC3(CC2)O[C@@H]2CC[C@@H](c4ccccc4)N2C3=O)c(OC)c1 [Example 4.197, methyl 5-methoxy-6-[(5′S,7a′R)-3′-oxo-5′-phenyltetrahydro-1H,3′H-spiro[piperidine-4,2′-pyrrolo[2,1-b] [1,3]oxazol]-1-yl]pyridine-3-carboxylate] — 30-fold lower, 25.1 nM
- CSc1cc(N2CCC3(CC2)O[C@@H]2CC[C@@H](c4cc(F)cc(F)c4)N2C3=O)ncc1C#N [Example 4.71, 6-[(5′S,7a′R)-5′-(3,5-difluorophenyl)-3′-oxotetrahydro-1H,3′H-spiro[piperidine-4,2′-pyrrolo[2,1-b] [1,3]oxazol]-1-yl]-4-(methylsulfanyl)pyridine-3-carbonitrile] — 25-fold lower, 30.3 nM
- CCc1ccnc(C(=O)N2CCC3(CC2)O[C@@H]2CC[C@@H](c4cc(F)cc(F)c4)N2C3=O)c1 [Example 6.79, (5′S,7a′R)-5′-(3,5-difluorophenyl)-1-(4-ethylpyridine-2-carbonyl)tetrahydro-3′H-spiro[piperidine-4,2′-pyrrolo[2,1-b][1,3]oxazol]-3′-one] — 20-fold lower, 38.3 nM
- COc1cccc([C@@H]2CC[C@H]3OC4(CCN(C(=O)c5ccccc5)CC4)C(=O)N32)n1 [Example 17.5, (5′S,7a′R)-1-benzoyl-5′-(6-methoxypyridin-2-yl)tetrahydro-3′H-spiro[piperidine-4,2′-pyrrolo[2,1-b]oxazol]-3′-one, TFA salt] — 2.2-fold lower, 344 nM
- O=C(c1cccc(N2CCCC2)n1)N1CCC2(CC1)O[C@@H]1CC[C@@H](c3cc(F)cc(F)c3)N1C2=O [Example 6.96, (5′S,7a′R)-5′-(3,5-difluorophenyl)-1-[6-(pyrrolidin-1-yl)pyri-dine-2-carbonyl]tetra-hydro-3′H-spiro[piperi-dine-4,2′-pyrrolo[2,1-b][1,3]oxazol]-3′-one] — 24-fold lower, 31.6 nM
- O=C1N2[C@@H](CC[C@H]2c2cc(F)cc(F)c2)OC12CCN(c1cccc3ncnn13)CC2 [Example 13.2, (5′S,7a′R)-1-([1,2,4]triazolo[1,5-a]pyridin-5-yl)-5′-(3,5-difluorophenyl)tetrahydro-3′H-spiro[piperidine-4,2′-pyrrolo[2,1-b]oxazol]-3′-one, TFA salt] — lower, < 25 nM
- COc1ccc(N2CCC3(CC2)O[C@@H]2CC[C@@H](c4ccccc4)N2C3=O)nc1OC [Example 11.31, (5′S,7a′R)-1-(5,6-dimethoxypyridin-2-yl)-5′-phenyltetrahydro-3′H-spiro[piperidine-4,2′-pyrrolo[2,1-b][1,3]oxazol]-3′-one] — lower, < 25 nM
- CC1CC2(CCN1c1ccnc3ccnn13)O[C@@H]1CC[C@@H](c3ccccc3)N1C2=O (stereo partly drawn) [Example 4.247, (4R,5′S,7a′R)-2-methyl-5′-phenyl-1-(pyrazolo[1,5-a]pyrimidin-7-yl)tetrahydro-3′H-spiro[piperidine-4,2′-pyrrolo[2,1-b] [1,3]oxazol]-3′-one] — 8.8-fold lower, 86.5 nM
- Cc1nc(N2CCC3(CC2)O[C@@H]2CC[C@@H](c4cc(F)cc(F)c4)N2C3=O)ncc1F [Example 4.61, (5′S,7a′R)-5′-(3,5-difluorophenyl)-1-(5-fluoro-4-methylpyrimidin-2-yl)tetrahydro-3′H-spiro[piperidine-4,2′-pyrrolo[2,1-b] [1,3]oxazol]-3′-one] — 14-fold lower, 53.4 nM
- COc1ncnc(N2CCC3(CC2)O[C@@H]2CC[C@@H](c4ccccc4)N2C3=O)c1F [Example 11.28, (5′S,7a′R)-1-(5-fluoro-6-methoxypyrimidin-4-yl)-5′-phenyltetrahydro-3′H-spiro[piperidine-4,2′-pyrrolo[2,1-b][1,3]oxazol]-3′-one] — lower, < 25 nM
- O=C(c1ccccc1)N1CC2(C1)S[C@@H]1CC[C@@H](c3cc(F)cc(F)c3)N1C2=O [Example 1.25, (5′S,7a′R)-1-benzoyl-5′-(3,5-difluorophenyl)tetrahydro-3′H-spiro[azetidine-3,2′-pyrrolo[2,1-b]thiazol]-3′-one] — 7.7-fold lower, 98.3 nM
- O=C(c1cnc(Cl)cn1)N1CCC2(CC1)O[C@@H]1CC[C@@H](c3cc(F)cc(F)c3)N1C2=O [Example 6.86, (5′S,7a′R)-1-(5-chloro-pyrazine-2-carbonyl)-5′-(3,5-difluorophen-yl)tetrahydro-3′H-spiro[piperidine-4,2′-pyrrolo[2,1-b][1,3]-oxazol]-3′-one] — 8.8-fold lower, 86 nM
- Cn1nccc1C(=O)N1CCC2(CC1)O[C@@H]1CC[C@@H](c3cc(F)cc(F)c3)N1C2=O [Example 5.38, (5′S,7a′R)-5′-(3,5-difluoro-phenyl)-1-(1-methyl-1H-pyrazole-5-carbonyl)tetra-hydro-3′H-spiro[piperi-dine-4,2′-pyrrolo[2,1-b]oxazol]-3′-one] — 7.4-fold lower, 103 nM
- O=C(c1ncc(F)cc1F)N1CCC2(CC1)O[C@@H]1CC[C@@H](c3cc(F)cc(F)c3)N1C2=O [Example 6.89, (5′S,7a′R)-5′-(3,5-difluorophenyl)-1-(3,5-difluoropyridine-2-carbonyl)tetrahydro-3′H-spiro[piperidine-4,2′-pyrrolo[2,1-b] [1,3]oxazol]-3′-one] — 21-fold lower, 35.4 nM

Reference: patent publication US12180226B2, “Spirotricycle RIPK1 inhibitors and methods of uses thereof” (Merck Sharp & Dohme LLC, priority 2021, dated 2024)
